Experimental data: patent US9018383B2, “Acylamino-substituted cyclic carboxylic acid derivatives and their use as pharmaceuticals” (Sanofi, priority 2009, dated 2015)

Molecular target: human Edg-2 receptor (Homo sapiens, UniProt Q92633)
Assay: Determination of Edg-2 receptor inhibition by FLIPR measurements (LPA-mediated calcium liberation)
Type: cell-based
Conditions: CHO cells overexpressing human Edg-2 receptor, LPA 100 nM, fluo-4 calcium fluorescence; read-out: Inhibitory concentrations IC50 for inhibition of the Edg-2 receptor
Summary of the method: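 IC50 was derived from % inhibition of the baseline-corrected peak fluo-4 signal relative to DMSO, measured in triplicate. Compound was added ~5 min before 100 nM LPA (18:1) to human Edg-2–expressing CHO cells in pH 7.5 HBSS buffer with probenecid and HEPES, and fluorescence was monitored ~3 min.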

human Edg-2 receptor, sequence (Q92633 whole entry): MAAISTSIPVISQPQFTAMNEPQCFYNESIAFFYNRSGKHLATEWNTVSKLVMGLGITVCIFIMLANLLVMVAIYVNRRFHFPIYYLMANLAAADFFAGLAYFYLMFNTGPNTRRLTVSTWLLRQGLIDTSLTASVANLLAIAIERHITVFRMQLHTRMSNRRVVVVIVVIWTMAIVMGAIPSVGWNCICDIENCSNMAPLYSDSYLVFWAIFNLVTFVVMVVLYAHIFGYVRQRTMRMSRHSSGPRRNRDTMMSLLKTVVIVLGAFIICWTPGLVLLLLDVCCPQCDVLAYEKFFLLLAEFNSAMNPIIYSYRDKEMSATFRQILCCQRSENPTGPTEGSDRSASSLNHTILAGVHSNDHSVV

| Structure (SMILES) | IC50 |
| --- | --- |
| CC[C@H]1CC[C@](NC(=O)c2cnc(O)c(-c3cccc(C(F)(F)F)c3)c2)(C(=O)O)CC1 [Example 426, cis-4-Ethyl-1-{[6-hydroxy-5-(3-trifluoromethyl-phenyl)-pyridine-3-carbonyl]-amino}-cyclohexanecarboxylic acid] | 100 to 1000 nM |
| CC[C@@H]1C[C@]1(NC(=O)c1ccc(OC)c(-c2cccc(C(F)(F)F)c2)c1)C(=O)O [Example 427, (1R,2R)-2-Ethyl-1-[(6-methoxy-3′-trifluoromethyl-biphenyl-3-carbonyl)-amino]-cyclopropanecarboxylic acid] | 100 to 1000 nM |
| CC[C@H]1CC[C@](NC(=O)c2ccc(C=O)c(-c3cccc(C(F)(F)F)c3)c2)(C(=O)O)CC1 [Example 428, cis-4-Ethyl-1-[(6-formyl-3′-trifluoromethyl-biphenyl-3-carbonyl)-amino]-cyclohexanecarboxylic acid] | < 100 nM |
| CC[C@H]1CC[C@@](NC(=O)c2ccc(C=O)c(-c3cccc(C(F)(F)F)c3)c2)(C(=O)O)CC1 [Example 429, trans-4-Ethyl-1-[(6-formyl-3′-trifluoromethyl-biphenyl-3-carbonyl)-amino]-cyclohexanecarboxylic acid] | 100 to 1000 nM |
| CC[C@H]1CC[C@](NC(=O)c2ccc(CO)c(-c3cccc(C(F)(F)F)c3)c2)(C(=O)O)CC1 [Example 430, cis-4-Ethyl-1-[(6-hydroxymethyl-3′-trifluoromethyl-biphenyl-3-carbonyl)-amino]-cyclohexanecarboxylic acid] | 100 to 1000 nM |
| CC[C@H]1CC[C@@](NC(=O)c2ccc(CO)c(-c3cccc(C(F)(F)F)c3)c2)(C(=O)O)CC1 [Example 431, trans-4-Ethyl-1-[(6-hydroxymethyl-3′-trifluoromethyl-biphenyl-3-carbonyl)-amino]-cyclohexanecarboxylic acid] | 100 to 1000 nM |
| CC[C@H]1CC[C@](NC(=O)c2ccc(CCCO)c(-c3cccc(C(F)(F)F)c3)c2)(C(=O)O)CC1 [Example 433, cis-4-Ethyl-1-{[6-(3-hydroxy-propyl)-3′-trifluoromethyl-biphenyl-3-carbonyl]-amino}-cyclohexanecarboxylic acid] | < 100 nM |
| C[C@H]1CC[C@](NC(=O)c2ccc(CCCO)c(-c3cccc(C(F)(F)F)c3)c2)(C(=O)O)CC1 [Example 434, cis-1-{[6-(3-Hydroxy-propyl)-3′-trifluoromethyl-biphenyl-3-carbonyl]-amino}-4-methyl-cyclohexanecarboxylic acid] | 100 to 1000 nM |
| CCc1ncc(C(=O)N[C@]2(C(=O)O)CC[C@H](C)CC2)cc1OCCc1cccc(Cl)c1 [Example 435, cis-1-({5-[2-(3-Chloro-phenyl)-ethoxy]-6-ethyl-pyridine-3-carbonyl}-amino)-4-methyl-cyclohexanecarboxylic acid] | 100 to 1000 nM |
| CCc1ncc(C(=O)N[C@]2(C(=O)O)CC[C@@H](C)CC2)cc1OCCc1cccc(Cl)c1 [Example 436, trans-1-({5-[2-(3-Chloro-phenyl)-ethoxy]-6-ethyl-pyridine-3-carbonyl}-amino)-4-methyl-cyclohexanecarboxylic acid] | 100 to 1000 nM |
| CCc1ncc(C(=O)N[C@]2(C(=O)O)CC[C@H](CC)CC2)cc1OCCc1cccc(Cl)c1 [Example 437, cis-1-({5-[2-(3-Chloro-phenyl)-ethoxy]-6-ethyl-pyridine-3-carbonyl}-amino)-4-ethyl-cyclohexanecarboxylic acid] | < 100 nM |
| CCc1ncc(C(=O)N[C@]2(C(=O)O)CC[C@@H](CC)CC2)cc1OCCc1cccc(Cl)c1 [Example 438, trans-1-({5-[2-(3-Chloro-phenyl)-ethoxy]-6-ethyl-pyridine-3-carbonyl}-amino)-4-ethyl-cyclohexanecarboxylic acid] | < 100 nM |
| CC[C@H]1CC[C@@](NC(=O)c2cc(OCCc3cccc(Cl)c3)c(C(C)=O)s2)(C(=O)O)CC1 [Example 439, trans-1-({5-Acetyl-4-[2-(3-chloro-phenyl)-ethoxy]-thiophene-2-carbonyl}-amino)-4-ethyl-cyclohexanecarboxylic acid] | 100 to 1000 nM |
| CCc1sc(C(=O)N[C@]2(C(=O)O)CC[C@@H](CC)CC2)cc1OCCc1cccc(Cl)c1 [Example 440, trans-1-({4-[2-(3-Chloro-phenyl)-ethoxy]-5-ethyl-thiophene-2-carbonyl}-amino)-4-ethyl-cyclohexanecarboxylic acid] | 100 to 1000 nM |
| CC[C@H]1CC[C@](C(=O)O)(N(C)C(=O)c2ccc(OC)c(OCCc3cccc(C)c3)c2)CC1 [Example 441, trans-4-Ethyl-1-{[4-methoxy-3-(2-m-tolyl-ethoxy)-benzoyl]-methyl-amino}-cyclohexanecarboxylic acid] | 1000 to 30000 nM |
| Cc1cccc(CCOc2ccc(C(=O)N[C@]3(C(=O)O)CC[C@@H](C)CC3)cc2C(O)C(F)(F)F)c1 (stereo partly drawn) [Example 442, (R,S)-trans-4-Methyl-1-[4-(2-m-tolyl-ethoxy)-3-(2,2,2-trifluoro-1-hydroxy-ethyl)-benzoylamino]-cyclohexanecarboxylic acid] | < 100 nM |
| COc1ccc(-c2cc(C(=O)N[C@]3(C(=O)O)CC[C@@H](C)CC3)ccc2OC2CC(F)(F)C2)cc1Cl [Example 443, Trans-1-{[3′-Chloro-6-(3,3-difluoro-cyclobutoxy)-4′-methoxy-biphenyl-3-carbonyl]-amino}-4-methyl-cyclohexanecarboxylic acid] | 100 to 1000 nM |
| COc1cc(F)c(-c2cc(C(=O)N[C@]3(C(=O)O)CC[C@@H](C)CC3)ccc2C(F)(F)F)c(F)c1 [Example 444, 1-[(2′,6′-Difluoro-4′-methoxy-6-trifluoromethyl-biphenyl-3-carbonyl)-amino]-4-methyl-cyclohexanecarboxylic acid] | 100 to 1000 nM |
| COc1ccc(C(=O)N[C@]2(C(=O)O)CC[C@@H](C)CC2)cc1-c1c(F)cc(OC)c(Cl)c1F [Example 445, 1-[(3′-Chloro-2′,6′-difluoro-6,4′-dimethoxy-biphenyl-3-carbonyl)-amino]-4-methyl-cyclohexanecarboxylic acid] | < 100 nM |
| COc1ccc(-c2cc(C(=O)N[C@]3(C(=O)O)CC[C@@H](C)CC3)cc(F)c2OC)cc1Cl [Example 446, Trans-1-[(3′-Chloro-5-fluoro-6,4′-dimethoxy-biphenyl-3-carbonyl)-amino]-4-methyl-cyclohexanecarboxylic acid] | < 100 nM |
| CC[C@H]1CC[C@](NC(=O)c2cc(F)c(OC)c(-c3ccc(OC)c(Cl)c3)c2)(C(=O)O)CC1 [Example 447, Cis-1-[(3′-chloro-5-fluoro-6,4′-dimethoxy-biphenyl-3-carbonyl)-amino]-4-ethyl-cyclohexanecarboxylic acid] | < 100 nM |
| COc1ccc(-c2cc(C(=O)N[C@]3(C(=O)O)CC[C@H](C(F)(F)F)CC3)cc(F)c2OC)cc1Cl [Example 448, Cis-1-[(3′-Chloro-5-fluoro-6,4′-dimethoxy-biphenyl-3-carbonyl)-amino]-4-trifluoromethyl-cyclohexanecarboxylic acid] | < 100 nM |
| COc1ncc(-c2cc(C(=O)N[C@]3(C(=O)O)CC[C@@H](C)CC3)cc(F)c2OC)cc1Cl [Example 449, 1-[3-(5-Chloro-6-methoxy-pyridin-3-yl)-5-fluoro-4-methoxy-benzoylamino]-4-methyl-cyclohexanecarboxylic acid] | 100 to 1000 nM |
